8 molecules from patent publication US20240067662A1, “KRAS INHIBITORS” (Bristol-Myers Squibb Company, priority 2022, published 2024) can be followed below.

As usually defined, the IC50 is the concentration that gives 50% inhibition.

Sequence of GMPPNP-loaded KRAS G12C (P01116 1-188 isoform P01116-2 G12C): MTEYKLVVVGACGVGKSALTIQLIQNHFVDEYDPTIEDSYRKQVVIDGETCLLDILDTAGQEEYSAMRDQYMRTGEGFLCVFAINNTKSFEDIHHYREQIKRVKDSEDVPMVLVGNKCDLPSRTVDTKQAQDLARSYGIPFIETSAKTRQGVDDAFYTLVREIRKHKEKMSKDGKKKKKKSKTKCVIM

For the assay, the target named is GMPPNP-loaded KRAS G12C (Homo sapiens, UniProt P01116, G12C). Kind of assay: KRAS G12C RAF Disruption Assay (HTRF). It is filed as biochemical. The settings on record: recombinant GMPPNP-loaded KRAS G12C (5 nM), 20 min with compound; GST-RAF1 RBD (9 nM); HTRF signal; read-out: KRASG12C RAF Disruption Assay (IC50). As for the experimental part:
KRAS^G12C RAF Disruption Assay
This is a functional assay that measures activity of compounds against KRAS-G12C^(ON), i.e., the active form of KRAS G12C. Recombinant GMPPNP-loaded KRAS G12C (5 nM) was treated with compound at room temperature for 20 minutes in assay buffer (50 mM Tris pH 7.5, 100 mM NaCl, 1 mM MgCl2, 1 mM DTT, 100ug/ml BSA). Recombinant GST-RAF1 RBD (9 nM) was added, and the reaction mixture was incubated for 20 minutes. SA-Tb (0.25 nM) was added, and the reaction mixture was incubated for 3 hours. HTRF signal was measured (PerkinElmer Envision), the signal ratio (λem 520/λem 495) was calculated, and IC50 values were calculated from the dose-response curve.
Turning to `C#Cc1cccc2cccc(-c3ncc4c(N5CC[C@@H]6CN(C(=O)/C(F)=C/c7ccccn7)C[C@@H]65)nc(OC[C@@]56CCCN5C[C@H](F)C6)nc4c3F)c12` [Compound 85, (Z)-1-((3aR, 6aR)-1-(7-(8-ethynylnaphthalen-1-yl)-8-fluoro-2-(((2R, 7aS)-2-fluorotetrahydro-1H-pyrrolizin-7a(5H)-yl)methoxy)pyrido[4,3-d]pyrimidin-4-yl)hexahydropyrrolo[3,4-b]pyrrol-5(1H)-yl)-2-fluoro-3-(pyridin-2-yl)prop-2-en-1-one], the IC50 amounted to 110 nM. To `C#Cc1cccc2cccc(-c3ncc4c(N5C[C@H](C)N(C(=O)/C(F)=C/c6ccccn6)C[C@H]5C)nc(OC[C@@]56CCCN5C[C@H](F)C6)nc4c3F)c12` [Compound 83, (Z)-1-((2S,5R)-4-(7-(8-ethynylnaphthalen-1-yl)-8-fluoro-2-(((2R, 7aS)-2-fluorotetrahydro-1H-pyrrolizin-7a(5H)-yl)methoxy)pyrido[4,3-d]pyrimidin-4-yl)-2,5-dimethylpiperazin-1-yl)-2-fluoro-3-(pyridin-2-yl)prop-2-en-1-one] belongs 2600 nM; to `C#Cc1c(F)ccc2cc(O)cc(-c3ncc4c(N5C[C@H]6CC[C@@H](C5)N6C(=O)/C(F)=C/c5cncc(C)n5)nc(OC[C@@]56CCCN5C[C@H](F)C6)nc4c3F)c12` [Example 26, (Z)-1-((1R, 5S)-3-(7-(8-ethynyl-7-fluoro-3-hydroxynaphthalen-1-yl)-8-fluoro-2-(((2R, 7aS)-2-fluorotetrahydro-1H-pyrrolizin-7a(5H)-yl)methoxy)pyrido[4,3-d]pyrimidin-4-yl)-3,8-diazabicyclo[3.2.1]octan-8-yl)-2-fluoro-3-(6-methylpyrazin-2-yl)prop-2-en-1-one], 170 nM; to `C#Cc1cccc2cccc(-c3ncc4c(N5C[C@H]6CN(C(=O)/C(F)=C/c7ncccn7)C[C@H]6C5)nc(OC[C@@]56CCCN5C[C@H](F)C6)nc4c3F)c12` [Compound 101, (Z)-1-((3aR, 6aS)-5-(7-(8-ethynylnaphthalen-1-yl)-8-fluoro-2-(((2R, 7aS)-2-fluorotetrahydro-1H-pyrrolizin-7a(5H)-yl)methoxy)pyrido[4,3-d]pyrimidin-4-yl)hexahydropyrrolo[3,4-c]pyrrol-2(1H)-yl)-2-fluoro-3-(pyrimidin-2-yl)prop-2-en-1-one], 12000 nM.

Consider `C#Cc1cccc2cccc(-c3ncc4c(N(C)C5CCN(C(=O)/C(F)=C/c6nccs6)C5C)nc(OC[C@@]56CCCN5C[C@H](F)C6)nc4c3F)c12` (single isomer, unassigned) [Example 73 cis isomer 2], for which the half-maximal inhibitory concentration (IC50) worked out at 1800 nM.

With `C#Cc1cccc2cccc(-c3ncc4c(N5C[C@H]6CN(C(=O)/C(F)=C/c7ccccn7)C[C@H]6C5)nc(OC[C@@]56CCCN5C[C@H](F)C6)nc4c3F)c12` [Compound 100, (Z)-1-((3aR, 6aS)-5-(7-(8-ethynylnaphthalen-1-yl)-8-fluoro-2-(((2R, 7aS)-2-fluorotetrahydro-1H-pyrrolizin-7a(5H)-yl)methoxy)pyrido[4,3-d]pyrimidin-4-yl)hexahydropyrrolo[3,4-c]pyrrol-2(1H)-yl)-2-fluoro-3-(pyridin-2-yl)prop-2-en-1-one], the IC50 was 5300 nM. Regarding `C#Cc1cccc2cccc(-c3ncc4c(N5CCN(C(=O)/C(F)=C/c6ncccn6)CC5)nc(OC[C@@]56CCCN5C[C@H](F)C6)nc4c3F)c12` [Compound 123, (Z)-1-(4-(7-(8-ethynylnaphthalen-1-yl)-8-fluoro-2-(((2R, 7aS)-2-fluorotetrahydro-1H-pyrrolizin-7a(5H)-yl)methoxy)pyrido[4,3-d]pyrimidin-4-yl)piperazin-1-yl)-2-fluoro-3-(pyrimidin-2-yl)prop-2-en-1-one], the IC50 is 187 nM.

For the molecule `C#Cc1cccc2cccc(-c3ncc4c(N5CCC6(CCN6C(=O)/C(F)=C/c6ccccn6)C5)nc(OC[C@@]56CCCN5C[C@H](F)C6)nc4c3F)c12` (single isomer, unassigned) [Compound 102], the IC50 was determined as 87 nM.
